Patent US12479804B2, “Herbicidal compounds” (SYNGENTA CROP PROTECTION AG, priority 2019, dated 2025)

Key:
Experiment in all cases: Glasshouse herbicidal test, pre- and post-emergence, percentage damage to the plant
Assay type in all cases: in vivo
Avena fatua (AVEFA) = settings: 250 g/h, evaluated after 13 days; for AVEFA POST percentage damage caused to the plant (five-point scale): post-emergence; for AVEFA PRE percentage damage caused to the plant (five-point scale): pre-emergence
Description: (§1) Seeds of a variety of test species are sown in standard soil in pots (Lolium perenne (LOLPE), Setaria faberi (SETFA), Alopecurus myosuroides (ALOMY), Echinochloa crus-galli (ECHCG), Avena fatua (AVEFA)). After cultivation for one day (pre-emergence) or after 8 days cultivation (post-emergence) under controlled conditions in a glasshouse (at 24/16° C., day/night; 14 hours light; 65% humidity), the plants are sprayed with an aqueous spray solution derived from the formulation of the technical active ingredient in acetone/water (50:50) solution containing 0.5% Tween 20 (polyoxyethelyene sorbitan monolaurate, CAS RN 9005-64-5). Compounds are applied at 250 g/h. The test plants are then grown in a glasshouse under controlled conditions in a glasshouse (at 24/16° C., day/night; 14 hours light; 65% humidity) and watered twice daily. After 13 days for pre and post-emergence, the test is evaluated for the percentage damage caused to the plant. The biological activities are shown in the following table on a five-point scale (5=80-100%; 4=60-79%; 3=40-59%; 2=20-39%; 1=0-19%).

Setaria faberi (SETFA) = settings: 250 g/h, evaluated after 13 days; for SETFA POST percentage damage caused to the plant (five-point scale): post-emergence; for SETFA PRE percentage damage caused to the plant (five-point scale): pre-emergence
Description: as §1

[1] = tested on: Alopecurus myosuroides (ALOMY); settings: 250 g/h, evaluated after 13 days; for ALOMY POST percentage damage caused to the plant (five-point scale): post-emergence; for ALOMY PRE percentage damage caused to the plant (five-point scale): pre-emergence
Description: as §1

Lolium perenne (LOLPE) = settings: 250 g/h, evaluated after 13 days; for LOLPE POST percentage damage caused to the plant (five-point scale): post-emergence; for LOLPE PRE percentage damage caused to the plant (five-point scale): pre-emergence
Description: as §1

[2] = tested on: Echinochloa crus-galli (ECHCG); settings: 250 g/h, evaluated after 13 days; for ECHCG POST percentage damage caused to the plant (five-point scale): post-emergence; for ECHCG PRE percentage damage caused to the plant (five-point scale): pre-emergence
Description: as §1

Structure (SMILES) | AVEFA POST percentage damage caused to the plant (five-point scale) (Avena fatua (AVEFA)) | AVEFA PRE percentage damage caused to the plant (five-point scale) (Avena fatua (AVEFA)) | SETFA POST percentage damage caused to the plant (five-point scale) (Setaria faberi (SETFA)) | SETFA PRE percentage damage caused to the plant (five-point scale) (Setaria faberi (SETFA)) | ALOMY POST percentage damage caused to the plant (five-point scale) [1] | ALOMY PRE percentage damage caused to the plant (five-point scale) [1] | LOLPE POST percentage damage caused to the plant (five-point scale) (Lolium perenne (LOLPE)) | LOLPE PRE percentage damage caused to the plant (five-point scale) (Lolium perenne (LOLPE)) | ECHCG POST percentage damage caused to the plant (five-point scale) [2] | ECHCG PRE percentage damage caused to the plant (five-point scale) [2]
CC#Cc1cc(C)c(C2C(=O)CC3(C=CN(C(=O)NC(C)(C)C)CC3)CC2=O)c(C)c1 (stereo not drawn) [Compound A53] | 4 (4=60-79%) | 2 (2=20-39%) | 5 (5=80-100%) | 5 (5=80-100%) | 5 (5=80-100%) | 5 (5=80-100%) | 5 (5=80-100%) | 5 (5=80-100%) | 5 (5=80-100%) | 5 (5=80-100%)
CC#Cc1cc(C)c(C2C(=O)CC3(C=CN(C(=O)NC(=O)C(C)(C)C)CC3)CC2=O)c(C)c1 (stereo not drawn) [Compound A54] | 5 (5=80-100%) | 5 (5=80-100%) | 5 (5=80-100%) | 5 (5=80-100%) | 5 (5=80-100%) | 5 (5=80-100%) | 5 (5=80-100%) | 5 (5=80-100%) | 5 (5=80-100%) | 5 (5=80-100%)
CC#Cc1cc(C)c(C2C(=O)CC3(C=CN(S(=O)(=O)CC)CC3)CC2=O)c(C)c1 (stereo not drawn) [Compound A55] | 5 (5=80-100%) | 5 (5=80-100%) | 5 (5=80-100%) | 5 (5=80-100%) | 5 (5=80-100%) | 5 (5=80-100%) | 5 (5=80-100%) | 5 (5=80-100%) | 5 (5=80-100%) | 5 (5=80-100%)
CC#Cc1cc(C)c(C2C(=O)CC3(C=CN(C(=O)C(F)F)CC3)CC2=O)c(C)c1 (stereo not drawn) [Compound A56] | 5 (5=80-100%) | 5 (5=80-100%) | 5 (5=80-100%) | 5 (5=80-100%) | 5 (5=80-100%) | 5 (5=80-100%) | 5 (5=80-100%) | 5 (5=80-100%) | 5 (5=80-100%) | 5 (5=80-100%)
CC#Cc1cc(C)c(C2C(=O)CC3(C=CN(C(=O)NC(=O)c4ccccn4)CC3)CC2=O)c(C)c1 (stereo not drawn) [Compound A57] | 5 (5=80-100%) | 4 (4=60-79%) | 5 (5=80-100%) | 5 (5=80-100%) | 5 (5=80-100%) | 5 (5=80-100%) | 5 (5=80-100%) | 5 (5=80-100%) | 5 (5=80-100%) | 5 (5=80-100%)
CC#Cc1cc(C)c(C2C(=O)CC3(CCN(C(C)=O)C(C)C3)CC2=O)c(C)c1 (stereo not drawn) [Compound A58] | 5 (5=80-100%) | 5 (5=80-100%) | 5 (5=80-100%) | 5 (5=80-100%) | 5 (5=80-100%) | 5 (5=80-100%) | 5 (5=80-100%) | 5 (5=80-100%) | 5 (5=80-100%) | 5 (5=80-100%)
